Experimental data reported in US11021463B2, “Therapeutic inhibitory compounds” (Attune Pharmaceuticals, Inc., priority 2013, dated 2021).

Molecular target: human plasma kallikrein (Homo sapiens (Human), UniProt P03952)
Assay: In vitro enzyme inhibition of human plasma kallikrein (Pro-Phe-Arg-AMC cleavage)
Type: biochemical
Settings: human Plasma Kallikrein (Abcam), Pro-Phe-Arg-AMC substrate, 37° C., pH 7.5; read-out: hPK IC50
Method: The ability of the compounds disclosed herein to inhibit human plasma kallikrein activity was quantified according to the procedures below.
A 10 mM solution of the test compound was made in DMSO. […] A control tube containing only DMSO is included. 16 μL of each compound test solution was combined with 384 μL of assay buffer (50 mM Tris-HCl pH 7.5, 150 mM NaCl, 0.01% Triton X-100) to yield a “4× test compound buffer stock”.
These solutions are hereby referred to as 4× hPK and 2×PFR-AMC, respectively.
50 μL was removed from this mixture and placed into duplicate wells on a Microfluor 1Black U-bottom microtiter plate (Thermo Scientific). This plate was incubated for 5 minutes at 37° C. To each well, 50 μL of pre-warmed 2×PFR-AMC was added to start the enzymatic reaction. Cleavage of PFR-AMC was monitored in a Biotek Synergy H4 reader set at 37° C. Readings are taken every 43 seconds for 1 hour. […] The IC50 is calculated using the Gen5 (Biotek Instruments).
The ability of the compounds in Table 3 to inhibit human plasma kallikrein activity was determined.

human plasma kallikrein, sequence (P03952 391-638 limits assumed): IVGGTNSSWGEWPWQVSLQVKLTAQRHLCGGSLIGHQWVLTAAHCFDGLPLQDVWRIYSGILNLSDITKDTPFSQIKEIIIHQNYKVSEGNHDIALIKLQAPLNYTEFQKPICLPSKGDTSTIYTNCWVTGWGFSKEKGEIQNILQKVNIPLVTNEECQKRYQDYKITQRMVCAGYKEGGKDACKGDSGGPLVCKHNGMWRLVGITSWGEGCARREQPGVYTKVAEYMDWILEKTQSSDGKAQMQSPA
human plasma kallikrein, sequence (P03952 20-390 partner limits assumed): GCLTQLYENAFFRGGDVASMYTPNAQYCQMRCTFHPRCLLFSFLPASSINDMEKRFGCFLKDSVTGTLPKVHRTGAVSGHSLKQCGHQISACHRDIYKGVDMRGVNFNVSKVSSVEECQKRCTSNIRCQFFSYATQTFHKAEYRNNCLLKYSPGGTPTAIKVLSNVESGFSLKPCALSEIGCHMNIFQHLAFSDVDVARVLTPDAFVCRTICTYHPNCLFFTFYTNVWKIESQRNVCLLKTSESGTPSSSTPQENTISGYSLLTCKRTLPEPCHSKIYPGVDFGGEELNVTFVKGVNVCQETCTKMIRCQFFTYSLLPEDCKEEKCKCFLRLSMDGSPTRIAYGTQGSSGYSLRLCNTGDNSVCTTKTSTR

## N-((6-amino-2,4-dimethylpyridin-3-yl)methyl)-2-((5-methyl-3a,7a-dihydro-1H-indazol-1-yl)methyl)isonicotinamide [Example 108]
  IC50: < 100 nM
